# Reference: US8921367B2 (Amgen Inc., priority 2012, dated 2014)
# Columns and labels:
# [1] = tested on: solid tumors; settings: days 1 and 8 or days 1, 2 and 3 of 3-week cycle, cited from earlier work
# [2] = tested on: advanced refractory solid tumors; settings: cited from earlier work
# [3] = tested on: histone H3, a proximal substrate of aurora-B; assay: In vivo phosphorylation of histone H3
# [4] = tested on: advanced solid tumors; assay: Ph I clinical dose escalation trial of oral AMG 900; tumor response by CT or MRI using RECIST criteria; assay type: in vivo, human
# From the text: Some of the objectives for the study included (1) determination of the maximal tolerated dose (MTD) and if necessary, the MTD in conjunction with prophylactic amounts of granulocyte colony stimulating factor (GCSF); (2) to evaluate the PD effects of drug exposure on phospho-histone H3 (serine 10) proteins levels in tumor tissue; (3) to evaluate change in tumor volume by volumetric or MRI analysis; and (4) to evaluate tumor response assessed by CT or MRI using RECIST criteria. The clinical trial was conducted in accordance with the following design/protocol:
# This is an open-label, sequential dose escalation study evaluating AMG 900 in subjects with advanced solid tumors. The study is being conducted in 2 parts: Part 1—Dose Escalation and Part 2—Dose Expansion. […] One cycle is defined as 14 days. Thus, 1 cycle=2 weeks (14 days) and DLT window=4 weeks (28 days).
# In addition, treatment with proton pump inhibitors or H2 receptor antagonists was withheld at least 48 hours prior to the first dose of each treatment cycle until at least 1 hour after the fourth dose of a treatment cycle. Starting Dose:
# In addition, treatment with proton pump inhibitors or H2 receptor antagonists were withheld at least 48 hours prior to the first dose of each treatment cycle until at least 1 hour after the fourth dose of a treatment cycle. One cycle was defined as 14 days. […] The investigator or sub-investigator performed a physical examination of each subject during clinic visits. A review of concomitant medications and an assessment of adverse events were performed at every visit.
# Efficacy was assessed by standardized contrast-enhanced CT or MRI and evaluated according to RECIST criteria. RECIST 1.0 and RECIST 1.1 criteria is described in the Journal of National Cancer Institute, Vol. 92, No. 3:205-216, 2000 and European Journal of Cancer 45:228-247, 2009, respectively, both disclosures of which are hereby incorporated herein by reference in their entireties. CT or MRI scans with contrast were acquired at baseline, 4 weeks after cycle 1 day 1, 8 weeks after cycle 1 day 1, and every 8 weeks thereafter until disease progression. Scans were acquired with slice thickness of about 5 mm or less. Baseline imaging studies were performed within 2 weeks prior to study day 1, and where practicable, they were performed as close to the day of enrollment as possible.
# [5] = tested on: CA-125; assay: CA-125 in ovarian cancer patient of the Ph I trial; assay type: in vivo, human; settings: platinum-sensitive ovarian cancer patient; 16 mg once daily, 8 mg cycles 4-15, 12 mg at cycle 16; end of cycle 16
# Experimental: Disease progression by appearance of new bone lesions in CRPC in the dose expansion phase were evaluated with bone scans. Bone scans were performed at baseline, 4 weeks after cycle 1 day 1, 8 weeks after cycle 1 day 1, and every 8 weeks thereafter until disease progression. Efficacy in ovarian cancer and CRPC were evaluated based on the Rustin criteria (1996) and PCWG2 guidelines, respectively. CA-125 in ovarian cancer and PSA in CRPC were collected every 4 weeks.
# [6] = tested on: AML; assay: Ph I AML study of oral AMG 900; assay type: in vivo, human
# From the text: The data for both studies are as follows:
# [7] = Ph I dose escalation: MTD and DLT determination; assay type: in vivo, human; settings: once daily oral, 4 days on/10 days off
# From the text: The dose escalation part of the study was aimed at determining a maximum tolerated dose (MTD) and if necessary the MTD with prophylactic GCSF support (MTD-G), and evaluating the safety, tolerability, pharmacokinetics and pharmacodynamics of AMG 900 in subjects with advanced solid tumors.
# A subsequent non-accelerated phase (SNAP) then commenced (≦50% dose escalations once the first grade 2 related toxicity occurred; ≦25% if a DLT occurs) in a standard 3+3 design at the dose level where DLT or possibly related grade 2 toxicity was observed. The percent of dose escalation depended upon toxicities observed in previous cohorts. Intra-subject dose escalation was not allowed. An MTD was determined without prophylactic GCSF support. If neutropenia (or neutropenia related toxicity) was dose limiting, then dose escalation proceeded with prophylactic GCSF support beginning at the dose level at which neutropenia (or neutropenia related toxicity) was dose limiting.
# [8] = tested on: multiple tumor xenografts, including three MDR xenograft models resistant to paclitaxel or docetaxel; assay: Growth of tumor xenografts; assay type: in vivo
# [9] = tested on: advanced solid malignancies; settings: cited from earlier work
# [10] = tested on: advanced solid tumor; settings: daily dosing 5 or 10 consecutive days in 3-week cycles; cited from earlier work
compound,measurement,setting,value
Cc1cc(Nc2ncc(F)c(NC3C4C=CC(C4)C3C(N)=O)n2)ccc1N1CCN(C)CC1 (stereo not drawn) [AS703569],impact on the patient's solid tumors,[1],no positive impact(s)
same,tolerability,[1]; various dosages,tolerable
CO[C@@H](C(=O)N1Cc2n[nH]c(NC(=O)c3ccc(N4CCN(C)CC4)cc3)c2C1)c1ccccc1 [Danusertib],amount that can be safely administered,[2]; over 24 hours in 14 day cycles without GCSF,≤ 500 mg/m^2
same,tumor response,"[2]; within dose of 500 mg/m^2, small cell lung carcinoma, prolonged disease stabilization in other solid tumors",prolonged objective response
"Cc1csc(-c2nnc(Nc3ccc(Oc4ncccc4-c4ccnc(N)n4)cc3)c3ccccc23)c1 [AMG 900, N-(4-((3-(2-amino-4-pyrimidinyl)-2-pyridinyl)oxy)phenyl)-4-(4-methyl-2-thienyl)-1-phthalazinamine]",phosphorylation of histone H3,[3],blocks the phosphorylation
same,Observed Response to AMG 900,"[4]; Patient No. 1, 1 mg once per day oral, 4 days on/10 days off, cholangiocarcinoma, at week 24",SD at week 24
same,Observed Response to AMG 900,"[4]; Patient No. 2, 8 mg once per day oral, 4 days on/10 days off, prostate, at week 8",SD at week 8
same,Observed Response to AMG 900,"[4]; Patient No. 3, 16 mg once per day oral, 4 days on/10 days off, ovarian, at week 40",SD at week 40
same,Observed Response to AMG 900,"[4]; Patient No. 4, 16 mg once per day oral, 4 days on/10 days off, breast, at week 4",SD at week 4
same,Observed Response to AMG 900,"[4]; Patient No. 5, 24 mg once per day oral, 4 days on/10 days off, colon, at week 8",SD at week 8
same,Observed Response to AMG 900,"[4]; Patient No. 6, 25 mg once per day oral, 4 days on/10 days off, rectal, at week 56",PD at week 56
same,Observed Response to AMG 900,"[4]; Patient No. 7, 24 mg once per day oral, 4 days on/10 days off, Medullary thyroid, at week 120",SD at week 120
same,Observed Response to AMG 900,"[4]; Patient No. 8, 30 mg + GCSF once per day oral, 4 days on/10 days off, endometrial, at Week 64",PR at Week 64;
same,Observed Response to AMG 900,"[4]; Patient No. 8, 30 mg + GCSF once per day oral, 4 days on/10 days off, endometrial, at week 72",SD at week 72
same,Observed Response to AMG 900,"[4]; Patient No. 9, 30 mg + GCSF once per day oral, 4 days on/10 days off, chondrosarcoma, at week 40",SD at week 40
same,Observed Response to AMG 900,"[4]; Patient No. 10, 40 mg + GCSF once per day oral, 4 days on/10 days off, colon, at week 32",SD at week 32
same,Observed Response to AMG 900,"[4]; Patient No. 11, 40 mg + GCSF once per day oral, 4 days on/10 days off, Non-small cell lung, at week 32",SD at week 32
same,Observed Response to AMG 900,"[4]; Patient No. 12, 50 mg + GCSF once per day oral, 4 days on/10 days off, thyroid, at week 32",SD at week 32
same,Observed Response to AMG 900,"[4]; Patient No. 13, 40 mg + GCSF once per day oral, 4 days on/10 days off, prostate, at week 8",SD at week 8
same,lowest once daily dose at which anti cancer activity was observed,"[4]; once daily oral, 4 days on/10 days off",8 mg
same,decrease of long axis diameter of tumor versus base line diameter on day 1,"[4]; patient with stage IV solid endometrial tumor, 30 mg + GCSF once daily, 4 days on/10 days off, week 24, CT, RECIST 1.0",approximately 50%
same,reduction of short axis diameter of tumor versus base line diameter on day 1,"[4]; patient with stage IV-B solid ovarian tumor, 30 mg once daily, 4 days on/10 days off, two cycles, week 4, RECIST 1.1",about 30%
same,decrease in SLD (sum of long axis diameters) on CT,"[4]; platinum-sensitive ovarian cancer patient, 16 mg once daily, 8 mg cycles 4-15, 12 mg at cycle 16, 4-day on-10 day off, end of cycle 16",16%
same,reduction of short axis diameter of tumor,"[4]; same endometrial solid tumor, 30 mg once daily, week 16 after eight (8) cycles, CT, RECIST 1.1",up to 40%
same,decrease in CA-125,[5],45%
same,Observed Response to AMG 900,"[6]; Patient No. 14, 80 mg once per day oral, 4 days on/10 days off",Active
same,Observed Response to AMG 900,"[6]; Patient No. 15, 80 mg once per day oral, 4 days on/10 days off",Active
same,Observed Response to AMG 900,"[6]; Patient No. 16, 30 mg once per day oral, 7 days on/7 days off",Active
same,doses at which MTD's and DLT's were observed,[7],greater than 8 mg
same,growth of tumor xenografts,[8],inhibits the growth
CCN(CCCOc1ccc2c(Nc3cc(CC(=O)Nc4cccc(F)c4)n[nH]3)ncnc2c1)CCOP(=O)(O)O [AZD1152],dosage amount safely administered,[9]; 2 hour IV infusion every 7 days,≤ 450 mg
same,disease response,"[9]; patients with rapidly progressive diseases, within 450 mg dose",significantly stabilize disease
CC(=O)NCC(=O)N1[C@@H]2CC[C@H]1c1ccc(Nc3ncc(C(F)(F)F)c(NC4CCC4)n3)cc12 [PF-03814735],objective response on the tumors,[10],NO objective response
